Data from paper PMC12802961 (Journal of Antimicrobial Chemotherapy, 2025).
Values joined by “and” are separate entries in the source; they are usually repeats but may differ in a detail not shown here. Equal entries are not always repeated.

Tests used:
[1] = tested on: ESBL-producing Enterobacterales; experiment: Neutropenic murine thigh infection model, Enterobacterales together; assay type: in vivo; conditions: Ct where in vitro reversal of cefepime resistance was found
Description: (§1) […]. […] […]. All dosing regimens were performed in at least two animals per dosing regimen.
(§2) At t = 0 h, 2 h after infection, two mice were humanely euthanized to determine the initial number of cfu/thigh just before treatment. All other animals were euthanized at t = 24 h unless the welfare of the animals indicated earlier termination, following animal welfare regulations. Thighs were taken and moved to a pre-cooled 10 mL plastic tube (Transport Tube, Omnilabo, NL) containing 2 mL PBS (NaCl 8.00 g/L, Na2HPO4 * 2H2O 1.44 g/L, KH2PO4 0.26 g/L, pH 7.2–7.4). Subsequently, thighs were homogenized using the Ultra-Turrax homogenizer (IKA Labortechnik, Germany). For each thigh 10-fold dilution series were prepared and 3 × 10 µL per dilution were plated (Chromagar, bioMérieux, NL). The following day, colonies were counted and the number of cfu/thigh was calculated. The drug effect was then determined as the difference between the log10cfu/thigh values at t = 24 h and t = 0 h (mean value of two mice) expressed as Δlog10cfu, i.e. positive result for growth, zero for static effect and negative for reduction of inoculum (killing).
(§3) . […] Free drug concentrations were used in all calculations. […]

[2] = tested on: MBL- and ESBL-producing isolates; conditions: cited from earlier work
[3] = tested on: P. aeruginosa 106; experiment: Checkerboard broth microdilution MIC of cefepime alone and with taniborbactam; assay type: cell-based, Pseudomonas aeruginosa; conditions: AmpC constitutively-producing P. aeruginosa; in vitro checkerboard
Text: (§4) Four previously well-characterized cefepime-resistant isolates, namely one ESBL-producing E. coli, one ESBL-producing K. pneumoniae and two P. aeruginosa (one VIM- and one AmpC constitutively -producing), were used.

[4] = tested on: P. aeruginosa 132; experiment: as above; assay type: cell-based, Pseudomonas aeruginosa; conditions: VIM-producing P. aeruginosa; in vitro checkerboard
Text: as §4

[5] = tested on: E. coli 52; experiment: Neutropenic murine thigh infection model; assay type: in vivo, Escherichia coli
Description: (§5) All dosing regimens were performed in at least two animals per dosing regimen.
(§6) At t = 0 h, 2 h after infection, two mice were humanely euthanized to determine the initial number of cfu/thigh just before treatment. […] Subsequently, thighs were homogenized using the Ultra-Turrax homogenizer (IKA Labortechnik, Germany). For each thigh 10-fold dilution series were prepared and 3 × 10 µL per dilution were plated (Chromagar, bioMérieux, NL). The following day, colonies were counted and the number of cfu/thigh was calculated.
(§7) Free drug concentrations were used in all calculations.

[6] = in vivo
[7] = tested on: P. aeruginosa 106; experiment: Neutropenic murine thigh infection model; assay type: in vivo, Pseudomonas aeruginosa
Description: as §5, §6, §7

[8] = tested on: P. aeruginosa 132; experiment: Neutropenic murine thigh infection model; assay type: in vivo, Pseudomonas aeruginosa
Description: as §5, §6, §7

[9] = tested on: AmpC constitutively-producing P. aeruginosa; conditions: cited from earlier work
[10] = human, in vivo; cited from earlier work
[11] = tested on: P. aeruginosa isolates; experiment: Neutropenic murine thigh infection model, P. aeruginosa isolates together; assay type: in vivo, Pseudomonas aeruginosa; conditions: Ct where in vitro reversal of cefepime resistance was found
Description: as §1, §2, §3

[12] = + cefepime q2h 4 mg/kg, Ct 0.015 mg/L
[13] = + cefepime q2h 4 mg/kg, Ct 0.03 mg/L
[14] = + cefepime q2h 4 mg/kg, Ct 0.06 mg/L
[15] = + cefepime q2h 4 mg/kg, Ct 0.125 mg/L
[16] = + cefepime q2h 4 mg/kg, Ct 0.25 mg/L
[17] = + cefepime q2h 4 mg/kg, Ct 0.5 mg/L
[18] = + cefepime q2h 4 mg/kg, Ct 1 mg/L
[19] = + cefepime q2h 4 mg/kg, Ct 2 mg/L
[20] = + cefepime q2h 4 mg/kg, Ct 4 mg/L
[21] = taniborbactam q2h + cefepime q2h 4 mg/kg
[22] = + cefepime q2h 64 mg/kg, Ct 0.015 mg/L
[23] = + cefepime q2h 64 mg/kg, Ct 0.03 mg/L
[24] = + cefepime q2h 64 mg/kg, Ct 0.06 mg/L
[25] = + cefepime q2h 64 mg/kg, Ct 0.125 mg/L
[26] = + cefepime q2h 64 mg/kg, Ct 0.25 mg/L
[27] = + cefepime q2h 64 mg/kg, Ct 0.5 mg/L
[28] = + cefepime q2h 64 mg/kg, Ct 1 mg/L
[29] = + cefepime q2h 64 mg/kg, Ct 2 mg/L
[30] = + cefepime q2h 64 mg/kg, Ct 4 mg/L
[31] = taniborbactam q2h + cefepime q2h 64 mg/kg
[32] = + cefepime q2h 8 mg/kg, Ct 0.015 mg/L
[33] = + cefepime q2h 8 mg/kg, Ct 0.03 mg/L
[34] = + cefepime q2h 8 mg/kg, Ct 0.06 mg/L
[35] = + cefepime q2h 8 mg/kg, Ct 0.125 mg/L
[36] = + cefepime q2h 8 mg/kg, Ct 0.25 mg/L
[37] = + cefepime q2h 8 mg/kg, Ct 0.5 mg/L
[38] = + cefepime q2h 8 mg/kg, Ct 1 mg/L
[39] = + cefepime q2h 8 mg/kg, Ct 2 mg/L
[40] = + cefepime q2h 8 mg/kg, Ct 4 mg/L
[41] = taniborbactam q2h + cefepime q2h 8 mg/kg

NCCN[C@H]1CC[C@H](CC(=O)N[C@H]2Cc3cccc(C(=O)O)c3OB2O)CC1 [taniborbactam, Taniborbactam]
%fT > Ct for 1 log kill [1]: 100%
%fT > Ct for stasis [1]: ~50%
Cefepime MIC reduction [2]: ≥ 2 fold
Taniborbactam concentration at which reversal of phenotypic resistance to cefepime was observed [3]: 2 mg/L
Taniborbactam concentration at which reversal of phenotypic resistance to cefepime was observed [4]: 0.125 mg/L
1 log kill: Taniborbactam %ƒT > Ct 0.015 mg/L [5, 12]: 100%
Stasis: Taniborbactam %ƒT > Ct 0.015 mg/L [5, 12]: 70.24%
1 log kill: Taniborbactam %ƒT > Ct 0.03 mg/L [5, 13]: 100%
Stasis: Taniborbactam %ƒT > Ct 0.03 mg/L [5, 13]: 53.44%
1 log kill: Taniborbactam %ƒT > Ct 0.06 mg/L [5, 14]: 99.7%
Stasis: Taniborbactam %ƒT > Ct 0.06 mg/L [5, 14]: 36.6% and 36.55%
1 log kill: Taniborbactam %ƒT > Ct 0.125 mg/L [5, 15]: 82.8% and 82.82%
Stasis: Taniborbactam %ƒT > Ct 0.125 mg/L [5, 15]: 19.7% and 19.66%
1 log kill: Taniborbactam %ƒT > Ct 0.25 mg/L [5, 16]: 65.92%
Stasis: Taniborbactam %ƒT > Ct 0.25 mg/L [5, 16]: 2.74%
1 log kill: Taniborbactam %ƒT > Ct 0.5 mg/L [5, 17]: 49.3%
Stasis: Taniborbactam %ƒT > Ct 0.5 mg/L [5, 17]: 0%
1 log kill: Taniborbactam %ƒT > Ct 1 mg/L [5, 18]: 32.14%
Stasis: Taniborbactam %ƒT > Ct 1 mg/L [5, 18]: 0%
1 log kill: Taniborbactam %ƒT > Ct 2 mg/L [5, 19]: 15.24%
Stasis: Taniborbactam %ƒT > Ct 2 mg/L [5, 19]: 0%
1 log kill: Taniborbactam %ƒT > Ct 4 mg/L [5, 20]: 0%
Stasis: Taniborbactam %ƒT > Ct 4 mg/L [5, 20]: 0%
1 log kill: Taniborbactam total daily dose, mg/kg [5, 21]: 41.8 mg/kg
Stasis: Taniborbactam total daily dose [5, 21]: 3.20 mg/kg
fT > Ct 8 mg/L [6]: 100%
1 log kill: Taniborbactam %ƒT > Ct 0.015 mg/L [7, 22]: 100%
Stasis: Taniborbactam %ƒT > Ct 0.015 mg/L [7, 22]: 100%
1 log kill: Taniborbactam %ƒT > Ct 0.03 mg/L [7, 23]: 100%
Stasis: Taniborbactam %ƒT > Ct 0.03 mg/L [7, 23]: 100%
1 log kill: Taniborbactam %ƒT > Ct 0.06 mg/L [7, 24]: 100%
Stasis: Taniborbactam %ƒT > Ct 0.06 mg/L [7, 24]: 100%
1 log kill: Taniborbactam %ƒT > Ct 0.125 mg/L [7, 25]: 100%
Stasis: Taniborbactam %ƒT > Ct 0.125 mg/L [7, 25]: 100%
1 log kill: Taniborbactam %ƒT > Ct 0.25 mg/L [7, 26]: 100%
Stasis: Taniborbactam %ƒT > Ct 0.25 mg/L [7, 26]: 88.39%
1 log kill: Taniborbactam %ƒT > Ct 0.5 mg/L [7, 27]: 96.5%
Stasis: Taniborbactam %ƒT > Ct 0.5 mg/L [7, 27]: 71.5%
1 log kill: Taniborbactam %ƒT > Ct 1 mg/L [7, 28]: 79.6% and 79.61%
Stasis: Taniborbactam %ƒT > Ct 1 mg/L [7, 28]: 54.6% and 54.61%
1 log kill: Taniborbactam %ƒT > Ct 2 mg/L [7, 29]: 62.71%
Stasis: Taniborbactam %ƒT > Ct 2 mg/L [7, 29]: 37.74%
1 log kill: Taniborbactam %ƒT > Ct 4 mg/L [7, 30]: 45.8%
Stasis: Taniborbactam %ƒT > Ct 4 mg/L [7, 30]: 20.82%
1 log kill: Taniborbactam total daily dose, mg/kg [7, 31]: 293 mg/kg
Stasis: Taniborbactam total daily dose [7, 31]: 105.00 mg/kg
1 log kill: Taniborbactam %ƒT > Ct 0.015 mg/L [8, 32]: 100%
Stasis: Taniborbactam %ƒT > Ct 0.015 mg/L [8, 32]: 100%
1 log kill: Taniborbactam %ƒT > Ct 0.03 mg/L [8, 33]: 100%
Stasis: Taniborbactam %ƒT > Ct 0.03 mg/L [8, 33]: 96.10%
1 log kill: Taniborbactam %ƒT > Ct 0.06 mg/L [8, 34]: 88.19%
Stasis: Taniborbactam %ƒT > Ct 0.06 mg/L [8, 34]: 79.2%
1 log kill: Taniborbactam %ƒT > Ct 0.125 mg/L [8, 35]: 71.30%
Stasis: Taniborbactam %ƒT > Ct 0.125 mg/L [8, 35]: 62.31%
1 log kill: Taniborbactam %ƒT > Ct 0.25 mg/L [8, 36]: 54.41%
Stasis: Taniborbactam %ƒT > Ct 0.25 mg/L [8, 36]: 45.1%
1 log kill: Taniborbactam %ƒT > Ct 0.5 mg/L [8, 37]: 37.51%
Stasis: Taniborbactam %ƒT > Ct 0.5 mg/L [8, 37]: 28.53%
1 log kill: Taniborbactam %ƒT > Ct 1 mg/L [8, 38]: 20.6% and 20.62%
Stasis: Taniborbactam %ƒT > Ct 1 mg/L [8, 38]: 11.6% and 11.63%
1 log kill: Taniborbactam %ƒT > Ct 2 mg/L [8, 39]: 3.72%
Stasis: Taniborbactam %ƒT > Ct 2 mg/L [8, 39]: 0%
1 log kill: Taniborbactam %ƒT > Ct 4 mg/L [8, 40]: 0%
Stasis: Taniborbactam %ƒT > Ct 4 mg/L [8, 40]: 0%
1 log kill: Taniborbactam total daily dose, mg/kg [8, 41]: 26 mg/kg
Stasis: Taniborbactam total daily dose [8, 41]: 18.00 mg/kg
Reduction of cefepime MICs (fold dilution) [9]: 2 fold
half-life [10]: 10 h
%fT > Ct for 1 log kill [11]: ~60%
%fT > Ct for stasis [11]: ~40%
